Measurements as given in ChEMBL document CHEMBL1126630, “Adenosine-5'-carboxaldehyde: a potent inhibitor of S-adenosyl-L-homocysteine hydrolase” (J Med Chem, 1993).

How the values were obtained:
Adenosylhomocysteinase = target: T1, Adenosylhomocysteinase (Rattus norvegicus, UniProt P10760); test: Inhibitory activity against recombinant rat liver S-adenosyl-homocysteine hydrolase
T1 sequence (P10760 whole entry): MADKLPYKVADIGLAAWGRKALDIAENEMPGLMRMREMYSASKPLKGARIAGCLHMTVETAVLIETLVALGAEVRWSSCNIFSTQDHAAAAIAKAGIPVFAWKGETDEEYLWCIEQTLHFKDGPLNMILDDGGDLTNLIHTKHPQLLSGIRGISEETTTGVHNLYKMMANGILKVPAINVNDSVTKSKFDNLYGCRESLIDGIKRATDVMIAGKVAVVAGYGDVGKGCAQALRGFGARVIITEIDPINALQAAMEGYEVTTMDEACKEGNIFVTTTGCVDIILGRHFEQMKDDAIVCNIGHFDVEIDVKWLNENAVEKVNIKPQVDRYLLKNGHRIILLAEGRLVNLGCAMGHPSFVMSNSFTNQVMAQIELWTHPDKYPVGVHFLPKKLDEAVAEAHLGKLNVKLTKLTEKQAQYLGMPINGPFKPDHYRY

[1] = target: T2, Adenosylhomocysteinase (Rattus norvegicus) (UniProt P10760)
T2 sequence (whole entry): T1 sequence (P10760 whole entry)
Description: Rate constant for recombinant rat liver S-adenosyl-homocysteine hydrolase inactivation

Structure (SMILES)	Ki (Adenosylhomocysteinase)	k2 [1]
Nc1ncnc2c1ncn2[C@@H]1O/C(=C/F)[C@H](O)[C@@H]1O	40 nM	0.05 min⁻¹
Nc1ncnc2c1ncn2[C@@H]1O[C@H](C=O)[C@@H](O)[C@H]1O	43 nM	0.22 min⁻¹
Nc1ncnc2c1ncn2[C@@H]1O/C(=C\F)[C@H](O)[C@@H]1O	39 nM	0.082 min⁻¹
Nc1ncnc2c1ncn2[C@@H]1O[C@@H](C=O)[C@@H](O)[C@H]1O	39 nM	0.65 min⁻¹
